Measured values reported in paper PMC7307906, “Macrocyclic Modalities Combining Peptide Epitopes and Natural Product Fragments” (Journal of the American Chemical Society, 2020).
Several values for one entry are separate records, joined by “and”; a condition that tells them apart may be missing. Identical values can stand only once. Like-named read-outs stand apart in the source and are kept apart here. One block for each molecule: values may come before it.

Tests used:
human MC3R [1] = target: T1, human MC3R (Homo sapiens, UniProt P41968); experiment: cAMP assay (LANCE) in T-Rex-293 cells expressing MC3R; assay type: cell-based
T1 construct: expressed in transfected cells
T1 sequence (P41968 whole entry): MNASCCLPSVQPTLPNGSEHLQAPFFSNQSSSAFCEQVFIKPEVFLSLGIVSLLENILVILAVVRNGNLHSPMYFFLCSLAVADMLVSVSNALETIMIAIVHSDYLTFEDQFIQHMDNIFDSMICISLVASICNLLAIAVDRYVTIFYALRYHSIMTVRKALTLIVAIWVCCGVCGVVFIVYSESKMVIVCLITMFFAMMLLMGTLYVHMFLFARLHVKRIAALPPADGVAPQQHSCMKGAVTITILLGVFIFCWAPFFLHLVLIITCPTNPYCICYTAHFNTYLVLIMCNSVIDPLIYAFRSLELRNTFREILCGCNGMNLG

human MC5R = target: T2, human MC5R (Homo sapiens, UniProt P33032); experiment: Melanocortin receptor radioligand binding (SPA, [125I]-NDP-α-MSH displacement), MC5R; details: competitive binding, [125I]-NDP-α-MSH; mean (± SEM) of at least three independent experiments; read-out: IC50 hMC5R binding
T2 construct: expressed in transfected cells; host or cells: HEK293-6E suspension cells, transient expression; membranes
T2 sequence (P33032 whole entry): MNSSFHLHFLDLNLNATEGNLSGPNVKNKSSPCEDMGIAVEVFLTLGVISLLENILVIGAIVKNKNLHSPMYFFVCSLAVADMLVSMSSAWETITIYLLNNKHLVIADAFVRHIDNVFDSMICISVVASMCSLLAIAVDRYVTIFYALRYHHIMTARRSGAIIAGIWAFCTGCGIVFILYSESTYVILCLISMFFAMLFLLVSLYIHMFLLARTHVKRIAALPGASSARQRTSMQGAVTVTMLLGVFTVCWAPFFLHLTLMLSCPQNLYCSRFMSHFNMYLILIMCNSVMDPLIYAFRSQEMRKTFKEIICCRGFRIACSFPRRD

human MC4R [2] = target: T3, human MC4R (Homo sapiens, UniProt P32245); experiment: cAMP assay (LANCE) in T-Rex-293 cells expressing MC4R; assay type: cell-based
T3 construct: expressed in transfected cells
T3 sequence (P32245 whole entry): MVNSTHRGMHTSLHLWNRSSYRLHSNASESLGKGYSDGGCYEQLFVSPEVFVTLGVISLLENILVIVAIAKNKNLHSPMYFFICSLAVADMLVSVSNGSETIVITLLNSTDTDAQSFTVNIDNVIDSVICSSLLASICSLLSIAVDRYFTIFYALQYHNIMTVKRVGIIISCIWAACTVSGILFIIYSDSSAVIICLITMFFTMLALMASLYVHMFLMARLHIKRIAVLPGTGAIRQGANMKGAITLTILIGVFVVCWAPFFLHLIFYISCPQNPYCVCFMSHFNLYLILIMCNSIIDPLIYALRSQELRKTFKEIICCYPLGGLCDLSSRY

human MC3R [3] = target: T1, human MC3R; experiment: Melanocortin receptor radioligand binding (SPA, [125I]-NDP-α-MSH displacement), MC3R; details: competitive binding, mean (± SEM) of at least three independent experiments, read-out: IC50 hMC3R binding
human MC4R [4] = target: T3, human MC4R; experiment: Melanocortin receptor radioligand binding (SPA, [125I]-NDP-α-MSH displacement), MC4R; details: competitive binding, mean (± SEM) of at least three independent experiments, read-out: IC50 hMC4R binding
human MC1R [5] = target: T4, human MC1R (Homo sapiens, UniProt Q01726); experiment: cAMP assay (LANCE) in T-Rex-293 cells expressing MC1R; assay type: cell-based; details: for Emax: T-REx-293, read-out: % Effect hMC1R cAMP
T4 construct: expressed in transfected cells
T4 sequence (Q01726 whole entry): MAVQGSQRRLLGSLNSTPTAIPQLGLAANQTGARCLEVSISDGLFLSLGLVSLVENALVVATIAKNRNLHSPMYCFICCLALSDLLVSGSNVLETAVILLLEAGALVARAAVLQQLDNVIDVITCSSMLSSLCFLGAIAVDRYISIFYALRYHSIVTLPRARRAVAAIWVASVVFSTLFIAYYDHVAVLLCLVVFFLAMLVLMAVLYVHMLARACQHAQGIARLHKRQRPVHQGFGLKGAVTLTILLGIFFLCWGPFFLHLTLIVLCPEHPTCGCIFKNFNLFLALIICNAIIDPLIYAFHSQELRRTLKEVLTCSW

human MC1R [6] = target: T4, human MC1R; experiment: Melanocortin receptor radioligand binding (SPA, [125I]-NDP-α-MSH displacement), MC1R; details: competitive binding, mean (± SEM) of at least three independent experiments, read-out: IC50 hMC1R binding
[7] = resin
[8] = Emax (curve plateau), relative to NDP-α-MSH, NA = No Activity detected, threshold 20% effect
[9] = other bond, Fmoc removal, intramolecular imine, N-methylmaleimide 1,3-dipolar cycloaddition, 4 steps
[10] = other bond, N-methylmaleimide (RP-04; imine cyclization/1,3-dipolar cycloaddition), 4 steps
[11] = other bond, Fmoc removal (RP-03), imine cyclization/1,3-dipolar cycloaddition, N-methylmaleimide (RP-04), 4 steps
[12] = other bond, Fmoc removal (RP-03), imine cyclization/N-methylmaleimide 1,3-dipolar cycloaddition (RP-04), 3 steps
[13] = other bond, 34-membered ring, imine formation, then N-methylmaleimide cycloaddition (RP-04), 4 steps
[14] = other bond, Fmoc removal, intramolecular imine, N-phenylmaleimide 1,3-dipolar cycloaddition, 4 steps
[15] = other bond, Fmoc removal (RP-03), imine cyclization/N-phenylmaleimide 1,3-dipolar cycloaddition (RP-04), 3 steps
[16] = other bond, imine formation, then N-phenylmaleimide cycloaddition (RP-04), with chain assembly
[17] = other bond, N-phenylmaleimide (RP-04; imine cyclization/1,3-dipolar cycloaddition), 4 steps

EC50 (human MC3R [1]; cAMP assay, mean (± SEM) of at least three independent experiments, read-out: EC50 hMC3R cAMP): > 100 µM
IC50 (human MC5R): 16 ± 2 µM
EC50 (human MC4R [2]; cAMP assay, mean (± SEM) of at least three independent experiments, read-out: EC50 hMC4R cAMP): > 100 µM
IC50 (human MC3R [3]): 32 ± 2 µM
IC50 (human MC4R [4]): 34 ± 3 µM
Emax (human MC1R [5]): 37%
EC50 (human MC1R [5]; cAMP assay, mean (± SEM) of at least three independent experiments, read-out: EC50 hMC1R cAMP): 1.8 ± 1.2 µM
IC50 (human MC1R [6]): 41 ± 2 µM
Molecule: C[C@@H]1NC(=O)[C@H](CC(N)=O)NC(=O)[C@H](Cc2ccccc2)NC(=O)[C@H](Cc2ccccc2)NC(=O)[C@H](CCCNC(=N)N)NC(=O)[C@H](Cc2ccccc2)N(C)C(=O)[C@@H]2N[C@H](c3ccc(cc3)C(=O)NCCCC[C@@H](C(=O)N[C@@H](Cc3ccc(O)cc3)C(N)=O)NC(=O)[C@H](Cc3ccccc3)NC1=O)[C@@H]1C(=O)N(C)C(=O)[C@@H]12 [B1-major, [ I-FRFFNAFK ]Y]

% Effect hMC1R cAMP (human MC1R [5]; [8]): 97%
Molecule: CCCC[C@H](NC(C)=O)C(=O)N[C@H]1CC(=O)NCCCC[C@@H](C(=O)O)NC(=O)[C@H](Cc2c[nH]c3ccccc23)NC(=O)[C@H](CCCNC(=N)N)NC(=O)[C@@H](Cc2ccccc2)NC(=O)[C@H](Cc2c[nH]cn2)NC1=O [Bremelanotid (BreMT), Bremelanotid, reference compound]

Emax (human MC1R [5]): 57%
Molecule: C[C@@H]1NC(=O)[C@H](CC(N)=O)NC(=O)[C@@H](Cc2ccccc2)NC(=O)[C@@H](Cc2ccccc2)NC(=O)[C@H](CCCNC(=N)N)NC(=O)[C@H](Cc2ccccc2)N(C)C(=O)[C@@H]2N[C@H](c3ccc(cc3)C(=O)NCCCC[C@@H](C(=O)N[C@@H](Cc3ccc(O)cc3)C(N)=O)NC(=O)[C@H](Cc3ccccc3)NC1=O)[C@]1(C(=O)Nc3ccccc31)[C@H]2c1ccccc1 [C2-major, [X-FRffNAFK ]Y]

Emax (human MC1R [5]): 36%
Molecule: C[C@@H]1NC(=O)[C@H](CC(N)=O)NC(=O)[C@@H](Cc2ccccc2)NC(=O)[C@@H](Cc2ccccc2)NC(=O)[C@H](CCCNC(=N)N)NC(=O)[C@H](Cc2ccccc2)N(C)C(=O)C2NC(c3ccc(cc3)C(=O)NCCCC[C@@H](C(=O)N[C@@H](Cc3ccc(O)cc3)C(N)=O)NC(=O)[C@H](Cc3ccccc3)NC1=O)C1(C(=O)Nc3ccccc31)C2c1ccccc1 (some centres unmarked) [C2-minor, [X-FRffNAFK ]Y]

Emax (human MC1R [5]): 56%
Molecule: CN1C(=O)[C@@H]2N[C@H](c3ccc(cc3)C(=O)NCCCC[C@@H](C(=O)N[C@@H](Cc3ccc(O)cc3)C(N)=O)NC(=O)[C@H](Cc3ccccc3)NC(=O)[C@H](Cc3ccccc3)NC(=O)[C@H](CCCNC(=N)N)NC(=O)[C@@H]1Cc1ccccc1)[C@@H]1C(=O)N(c3ccccc3)C(=O)[C@@H]12 [N1-minor*, [II-FRFFK ]Y]

Emax (human MC1R [5]): 36%
Molecule: CN1C(=O)[C@@H]2N[C@H](c3ccc(cc3)C(=O)NCCCC[C@@H](C(=O)NCC(N)=O)NC(=O)[C@H](Cc3ccccc3)NC(=O)[C@H](Cc3ccccc3)NC(=O)[C@H](CCCNC(=N)N)NC(=O)[C@@H]1Cc1ccccc1)[C@@H]1C(=O)N(c3ccccc3)C(=O)[C@@H]12 [N2-minor*, [II-FRFFK ]G]

Emax (human MC1R [5]): 62%
Molecule: CN1C(=O)[C@@H]2N[C@H](c3ccc(cc3)C(=O)NCCCC[C@@H](C(=O)N[C@@H](Cc3ccc(O)cc3)C(N)=O)NC(=O)[C@@H](Cc3ccccc3)NC(=O)[C@@H](Cc3ccccc3)NC(=O)[C@H](CCCNC(=N)N)NC(=O)[C@@H]1Cc1ccccc1)[C@@H]1C(=O)N(c3ccccc3)C(=O)[C@@H]12 [O2-major, [II-FRffK ]Y]

Molecule: CC(=O)N[C@@H](CCCNC(=N)N)C(=O)N[C@H]1CSSC[C@@H](C(N)=O)NC(=O)[C@H](Cc2c[nH]c3ccccc23)NC(=O)[C@H](CCCNC(=N)N)NC(=O)[C@@H](Cc2ccccc2)NC(=O)[C@H](Cc2c[nH]cn2)NC(=O)[C@@H](C)NC1=O [RM493, reference compound]
% Effect hMC3R cAMP (human MC3R [1]; [8]): 98%
IC50 (human MC5R): 1.8 ± 0.3 µM
% Effect hMC4R cAMP (human MC4R [2]; [8]): 100%
Emax (human MC1R [5]): 96%

Molecule: [N-Me-fused-di-pyrrolidine-FDINNNK]G
ring closure, yield after HPLC [7, 9]: 2%

Molecule: [N-Me-fused-di-pyrrolidine-NMeFAHASNK]G
ring closure, yield after HPLC [7, 10]: 3%

Molecule: [N-Me-fused-di-pyrrolidine-NMeFALFPGFK]G, A1
ring closure, yield after HPLC ([7]; other bond, 37-membered ring, CH(OMe)3/Et3N, then 6/LiBr/Et3N, DMF, THF, 25.0 °C, 4 steps): 22%

Molecule: [N-Me-fused-di-pyrrolidine-NMeFDINNNDab]G
ring closure, yield after HPLC ([7]; other bond, 32-membered ring, imine formation, then N-methylmaleimide cycloaddition (RP-04), with chain assembly): 3%

Molecule: [N-Me-fused-di-pyrrolidine-NMeFDINNNDap]G
ring closure, yield after HPLC ([7]; other bond, 31-membered ring, imine formation, then N-methylmaleimide cycloaddition (RP-04), with chain assembly): 4%

Molecule: [N-Me-fused-di-pyrrolidine-NMeFDINNNK]G
ring closure, yield after HPLC [7, 11]: 24%

Molecule: [N-Me-fused-di-pyrrolidine-NMeFDINNNOrn]G
ring closure, yield after HPLC ([7]; other bond, 33-membered ring, imine formation, then N-methylmaleimide cycloaddition (RP-04), with chain assembly): 13%

Molecule: [N-Me-fused-di-pyrrolidine-NMeFDINNNVK]G
ring closure, yield after HPLC [7, 9]: 5%

Molecule: [N-Me-fused-di-pyrrolidine-NMeFEEKDINNNVKK]T
ring closure, yield after HPLC [7, 9]: 2%

Molecule: [N-Me-fused-di-pyrrolidine-NMeFFLK]G, P1
ring closure, yield after HPLC ([7]; other bond, imine formation, then N-methylmaleimide cycloaddition (RP-04), with chain assembly): 4%

Molecule: [N-Me-fused-di-pyrrolidine-NMeFGLGFK]F
ring closure, yield after HPLC [7, 10]: 5%

Molecule: [N-Me-fused-di-pyrrolidine-NMeFINNNK]G
ring closure, yield after HPLC [7, 9]: 3%

Molecule: [N-Me-fused-di-pyrrolidine-NMeFNNNK]G
ring closure, yield after HPLC [7, 10]: 21%

Molecule: [N-Me-fused-di-pyrrolidine-NMeFRANK]G
ring closure, yield after HPLC [7, 12]: 14%

Molecule: [N-Me-fused-di-pyrrolidine-NMeFRFFNAK]Y
ring closure, yield after HPLC [7, 10]: 3%

Molecule: [N-Me-fused-di-pyrrolidine-NMeFRffK]Y, O1
ring closure, yield after HPLC ([7]; other bond, imine formation, then N-methylmaleimide cycloaddition (RP-04), 4 steps): 6% and 7%

Molecule: [N-Me-fused-di-pyrrolidine-NMeFRffNAFK]G
ring closure, yield after HPLC [7, 11]: 4%

Molecule: [N-Me-fused-di-pyrrolidine-NMeFRffNAK]Y
ring closure, yield after HPLC [7, 10]: 2%

Molecule: [N-Me-fused-di-pyrrolidine-NMeFRffNK]G
ring closure, yield after HPLC [7, 12]: 3%

Molecule: [N-Me-fused-di-pyrrolidine-NMeGDINNNK]G
ring closure, yield after HPLC ([7]; other bond, 34-membered ring, imine formation, then N-methylmaleimide cycloaddition (RP-04), with chain assembly): 8%

Molecule: [N-Me-fused-di-pyrrolidine-NMeLDINNNK]G
ring closure, yield after HPLC [7, 13]: 3% and 20%

Molecule: [N-Me-fused-di-pyrrolidine-NMeVDINNNK]G
ring closure, yield after HPLC [7, 13]: 27% and 12%

Molecule: [N-Me-fused-di-pyrrolidine-NMefDINNNK]G
ring closure, yield after HPLC [7, 9]: 5%

Molecule: [N-Ph-fused-di-pyrrolidine-NMeFALFPGFK]G, A2
ring closure, yield after HPLC ([7]; other bond, 37-membered ring, CH(OMe)3/Et3N, then 7/LiBr/Et3N, DMF, THF, 25.0 °C, with chain assembly): 10%

Molecule: [N-Ph-fused-di-pyrrolidine-NMeFDINNNDap]G
ring closure, yield after HPLC [7, 14]: 2%

Molecule: [N-Ph-fused-di-pyrrolidine-NMeFDINNNK]G
ring closure, yield after HPLC ([7]; other bond, Fmoc removal (RP-03), imine cyclization/1,3-dipolar cycloaddition, N-phenylmaleimide (RP-04), 4 steps): 5%

Molecule: [N-Ph-fused-di-pyrrolidine-NMeFRANK]G
ring closure, yield after HPLC [7, 15]: 3%

Molecule: [N-Ph-fused-di-pyrrolidine-NMeFRFFK], N3
ring closure, yield after HPLC [7, 16]: 2%

Molecule: [N-Ph-fused-di-pyrrolidine-NMeFRFFK]G, N2
ring closure, yield after HPLC [7, 16]: 2% and 3%

Molecule: [N-Ph-fused-di-pyrrolidine-NMeFRFFK]Y, N1
ring closure, yield after HPLC ([7]; other bond, imine formation, then N-phenylmaleimide cycloaddition (RP-04), 4 steps): 16% and 10%

Molecule: [N-Ph-fused-di-pyrrolidine-NMeFRFFNAK]Y
ring closure, yield after HPLC [7, 17]: 2%

Molecule: [N-Ph-fused-di-pyrrolidine-NMeFRffK]Y, O2
ring closure, yield after HPLC [7, 16]: 2%

Molecule: [N-Ph-fused-di-pyrrolidine-NMeFRffNK]G
ring closure, yield after HPLC [7, 15]: 1%

Molecule: [N-Ph-fused-di-pyrrolidine-NMeFRffNK]Y
ring closure, yield after HPLC ([7]; amide bond, 31-membered ring, 3 steps): 2%

Molecule: [N-Ph-fused-di-pyrrolidine-NMeVDINNNK]G
ring closure, yield after HPLC [7, 14]: 2% and 4%

Molecule: [N-Ph-fused-di-pyrrolidine-NMeVINNNK]G
ring closure, yield after HPLC [7, 17]: 7%

Molecule: [Ph-pyrrolidinyl-spirooxindole-NMeFRffNAK]G
ring closure, yield after HPLC ([7]; other bond, (E)-3-benzylidene-indolin-2-one (RP-04; imine cyclization/1,3-dipolar cycloaddition), 4 steps): 5%

Molecule: [pyrrolidine-NMeFDINNNK]G
ring closure, yield after HPLC ([7]; other bond, Fmoc removal (RP-03), imine cyclization/1,3-dipolar cycloaddition, dimethyl maleate (RP-04), 4 steps): 6% and 7%
